Results as given in patent US20210207188A1, “BETA-LACTAM COMPOUNDS AND METHODS OF USE THEREOF” (priority 2018, published 2021).

Columns and labels:
IMP-1 = molecular target: T1, IMP-1 (Serratia marcescens, UniProt P52699); type: biochemical; settings: for 3S/k (detection limit of the probe towards the carbapenemase) / time until hydrolysis reaction complete (fluorescent signal plateaued) / fluorescence signal over time / Kcat / Km: IMP-1; for time until hydrolysis reaction complete (fluorescent signal plateaued): probe 2.0 μM; for fluorescence signal over time: probe 2.0 μM (MCW-002 1.1 μM, MCW-011 0.5 μM), PBS; for Kcat / Km: Michaelis-Menten kinetics
T1 construct: His tag; made in house; host or cells: Escherichia coli
T1 sequence (P52699 19-246 limits assumed): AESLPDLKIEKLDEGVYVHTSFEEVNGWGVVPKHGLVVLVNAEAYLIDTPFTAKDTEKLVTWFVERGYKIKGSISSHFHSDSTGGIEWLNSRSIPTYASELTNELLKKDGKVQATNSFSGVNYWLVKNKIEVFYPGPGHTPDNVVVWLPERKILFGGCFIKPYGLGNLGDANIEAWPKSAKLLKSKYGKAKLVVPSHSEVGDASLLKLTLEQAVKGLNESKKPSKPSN
Procedure: (§1) Recombinant his-tagged beta-lactamases, including NDM-1, IMP-1, KPC-2, VIM-2 and OXA-48 were overexpressed in Escherichia coli. The enzymes were purified using HisTrap Ni-NTA columns. AmpC and TEM were purchased from commercial sources.
(§2) The fluorescence-based activity assays were performed in phosphate-buffer saline. The concentration of some of the compounds were determined by boiling the compounds in PBS solution until fluorescence signal was saturated. The amount of released fluorophore was quantified via fluorescence spectroscopy by comparing to a corresponding calibration curve.

KPC-2 = molecular target: T2, KPC-2 (Klebsiella pneumoniae, UniProt Q9F663); type: biochemical; settings: for Kcat / Km: Michaelis-Menten kinetics; for fluorescence signal over time: probe 2.0 μM (MCW-002 1.1 μM, MCW-011 0.5 μM), PBS
T2 construct: His tag; made in house; host or cells: Escherichia coli
T2 sequence (Q9F663 25-293 limits assumed): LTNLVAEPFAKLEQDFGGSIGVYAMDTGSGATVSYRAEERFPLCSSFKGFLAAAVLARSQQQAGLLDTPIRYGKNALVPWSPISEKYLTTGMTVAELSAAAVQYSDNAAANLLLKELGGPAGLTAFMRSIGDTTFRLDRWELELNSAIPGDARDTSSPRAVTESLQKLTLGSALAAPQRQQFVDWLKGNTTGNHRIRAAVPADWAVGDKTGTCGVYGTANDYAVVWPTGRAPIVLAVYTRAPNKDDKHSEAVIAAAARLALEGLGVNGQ
Procedure: as §1, §2

NDM-1 = molecular target: T3, NDM-1 (Klebsiella pneumoniae, UniProt C7C422); type: biochemical; settings: for Kcat / Km: Michaelis-Menten kinetics; for time until hydrolysis reaction complete (fluorescent signal plateaued): probe 2.0 μM; for fluorescence signal over time: probe 2.0 μM (MCW-002 1.1 μM, MCW-011 0.5 μM), PBS
T3 construct: His tag; made in house; host or cells: Escherichia coli
T3 sequence (C7C422 29-270 limits assumed): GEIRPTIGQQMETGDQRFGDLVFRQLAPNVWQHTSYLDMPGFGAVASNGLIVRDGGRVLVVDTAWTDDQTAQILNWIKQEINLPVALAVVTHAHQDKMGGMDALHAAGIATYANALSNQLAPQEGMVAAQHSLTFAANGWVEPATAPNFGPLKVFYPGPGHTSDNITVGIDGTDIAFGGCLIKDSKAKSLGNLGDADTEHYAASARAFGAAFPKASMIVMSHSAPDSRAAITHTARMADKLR
Procedure: as §1, §2

OXA-48 = molecular target: T4, OXA-48 (Klebsiella pneumoniae, UniProt Q6XEC0); type: biochemical; settings: for fluorescence signal over time: probe 2.0 μM (MCW-011 0.5 μM), PBS
T4 construct: His tag; made in house; host or cells: Escherichia coli
T4 sequence (Q6XEC0 23-265 limits assumed): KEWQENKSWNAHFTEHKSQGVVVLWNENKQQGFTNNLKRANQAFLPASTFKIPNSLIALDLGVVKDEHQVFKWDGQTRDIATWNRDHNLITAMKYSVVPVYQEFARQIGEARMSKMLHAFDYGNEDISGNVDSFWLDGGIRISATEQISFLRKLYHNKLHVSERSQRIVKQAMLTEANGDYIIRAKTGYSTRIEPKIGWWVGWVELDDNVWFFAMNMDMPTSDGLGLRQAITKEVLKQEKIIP
Procedure: as §1, §2

VIM-2 = molecular target: T5, VIM-2 (Escherichia coli, UniProt Q5U7L7); type: biochemical; settings: for Kcat / Km: Michaelis-Menten kinetics; for fluorescence signal over time: probe 2.0 μM (MCW-011 0.5 μM), PBS
T5 construct: His tag; made in house; host or cells: Escherichia coli
Procedure: as §1, §2

AmpC = test: Activity of beta-lactamases towards probes (fluorescence-based activity assay), AmpC; type: biochemical; settings: probe 2.0 μM (MCW-002 1.1 μM, MCW-011 0.5 μM), PBS
Procedure: as §1, §2

TEM = molecular target: T6, TEM (Escherichia coli, UniProt P62593); test: Activity of beta-lactamases towards probes (fluorescence-based activity assay), TEM; type: biochemical; settings: probe 2.0 μM (MCW-002 1.1 μM, MCW-011 0.5 μM), PBS
T6 construct: purchased
T6 sequence (P62593 24-286 limits assumed): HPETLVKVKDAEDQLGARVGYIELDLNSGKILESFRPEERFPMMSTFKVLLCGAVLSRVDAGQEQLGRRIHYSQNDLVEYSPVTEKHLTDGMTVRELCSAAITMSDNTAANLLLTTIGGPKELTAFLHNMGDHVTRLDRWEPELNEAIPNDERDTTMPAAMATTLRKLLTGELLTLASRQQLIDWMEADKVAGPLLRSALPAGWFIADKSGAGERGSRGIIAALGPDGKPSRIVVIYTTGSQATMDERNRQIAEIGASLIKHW
Procedure: as §1, §2

[1] = test system: beta-lactamases, including NDM-1, IMP-1, VIM-2, KPC-2, OXA-48, AmpC, and TEM; test: Fluorescence-based activity assay, whole panel of tested beta-lactamases; type: biochemical; settings: conclusion from fluorescence signals
Procedure: as §1, §2
(§3) Among the tested beta-lactamases, NDM-1, IMP-1, VIM-2, KPC-2 and OXA-48 are carbapenemases, whereas AmpC and TEM are not. Nitrocefin was used as a control to test the activity of the beta-lactamases because it can be hydrolyzed by a wide range of beta-lactamases.

[2] = test system: clinical isolates (CPE, Carbapenemase Producing Enterobacteriaceae, and Non CPE strains); test: Selectivity of probes with clinical isolates in lysis buffer (visible light and UV light); type: cell-based; settings: probe 10 μM
Procedure: The selectivity of some probes were evaluated with clinical isolates. The carbapenemases presence in the bacteria (CPE, i.e., Carbapenemase Producing Enterobacteriaceae) were verified by PCR (Polymerase Chain Reaction). 1 μL loop-full of each test bacterium from overnight-cultured LB agar plate were added to 100 μL PBS buffer with 0.5% CHAPS. The bacteria were vortexed to give a homogenious suspension and incubated for 15 min. To each of the bacteria-lysis buffer mixture (20 μL) were added quick test reagents (Probes (Final concentration=10 μM), CarbaNP solution A and CarbaNP solution B). CarbaNP solutions A and B were freshly prepared according to CLSI protocol, where solution A contains 10 mM zinc sulphate and phenol red buffer at pH=7.8±0.1 and solution B was a mixture of solution A with 3 mg/mL imipenem.

[3] = test system: beta-lactamases, including NDM-1, IMP-1, VIM-2, KPC-2, OXA-48, AmpC, and TEM; test: Hydrolysis of nitrocefin by beta-lactamases, absorbance at 485 nm; type: biochemical; settings: nitrocefin 50 μM
Procedure: as §1
The enzymatic activity of these beta-lactamases in hydrolysing beta-lactam compounds was tested using nitrocefin as a probe. Nitrocefin (50 μM) dissolved in phosphate buffer (pH=7.4) was mixed with each purified beta-lactamase. Once hydrolyzed, nitrocefin underwent a rapid color change from yellow to red. The hydrolysis process of nitrocefin was monitored by measuring the absorbance at 485 nm with a Molecular Device SpectraMax® Paradigm® Multi-Mode Microplate Reader.
as §3

Row | SMILES | 3S/k (detection limit of the probe towards the carbapenemase) (IMP-1) | time until hydrolysis reaction complete (fluorescent signal plateaued) (IMP-1) | fluorescence signal over time (IMP-1) | Kcat (IMP-1) | Km (IMP-1) | 3S/k (detection limit of the probe towards the carbapenemase) (KPC-2) | relative rate of hydrolysis reaction (KPC-2) | Kcat (KPC-2) | Km (KPC-2) | fluorescence signal over time (KPC-2) | 3S/k (detection limit of the probe towards the carbapenemase) (NDM-1) | Kcat (NDM-1) | Km (NDM-1) | time until hydrolysis reaction complete (fluorescent signal plateaued) (NDM-1) | fluorescence signal over time (NDM-1) | 3S/k (detection limit of the probe towards the carbapenemase) (OXA-48) | fluorescence signal over time (OXA-48) | 3S/k (detection limit of the probe towards the carbapenemase) (VIM-2) | relative rate of hydrolysis reaction (VIM-2) | Kcat (VIM-2) | also measured
1 | COc1cc(COc2ccc3nc4ccc(=O)cc-4oc3c2)ccc1OC/C=C/C1=C(C(=O)O)N2C(=O)[C@H]([C@@H](C)O)[C@H]2C1 [MCW-001, (5R,6S)-6-((R)-1-hydroxyethyl)-3-((E)-3-(2-methoxy-4-(((3-oxo-3H-phenoxazin-7-yl)oxy)methyl)phenoxy)prop-1-en-1-yl)-7-oxo-1-azabicyclo[3.2.0]hept-2-ene-2-carboxylic acid] | 0.333 pM | ≤ 2 min | pronounced increase in the fluorescent signal | 33.9 ± 0.71 s⁻¹ | 1.2 ± 0.08 µM | 4.43 pM | slower compared to the reactions with NDM-1 and IMP-1 | 2.17 ± 0.07 s⁻¹ | 0.93 ± 0.11 µM | pronounced increase in the fluorescent signal | 0.327 pM | 29.8 ± 0.81 s⁻¹ | 1.66 ± 0.13 µM | ≤ 2 min | pronounced increase in the fluorescent signal | 30.3 pM | pronounced increase in the fluorescent signal | 3.28 pM | slower compared to the reactions with NDM-1 and IMP-1 | 1.96 ± 0.05 s⁻¹ | fluorescence turn-on signal upon beta-lactam hydrolysis (IMP-1; MCW-001 1 μM, IMP-1 0.5 μM): more than 60 fold; absorption change over time (IMP-1; MCW-001 10 μM, IMP-1 2 μM): decreased in absorbance maximum at 480 nm and increase in absorbance maximum at 571 nm; time until hydrolysis reaction complete (fluorescent signal plateaued) (KPC-2; probe 2.0 μM): about 25 min; Kcat (OXA-48; Michaelis-Menten kinetics): 2.83 ± 0.18 s⁻¹; Km (OXA-48; Michaelis-Menten kinetics): 0.66 ± 0.08 µM; time until hydrolysis reaction complete (fluorescent signal plateaued) (OXA-48; probe 2.0 μM): > 30 min; Km (VIM-2): 1.18 ± 0.1 µM; time until hydrolysis reaction complete (fluorescent signal plateaued) (VIM-2; probe 2.0 μM): about 25 min; fluorescence signal over time (VIM-2): pronounced increase in the fluorescent signal; fluorescence signal over time (AmpC): minimal changes in the fluorescent signal; fluorescence signal over time (TEM): minimal changes in the fluorescent signal; specificity among the tested beta-lactamases [1]: specific for carbapenemases; signal with panel of clinical isolates ([2]; incubated for 15 min): observable colorimetric and fluorescence signal in CPE strains but not the Non CPE strains; signal with panel of clinical isolates ([2]; incubated for 120 min): observable colorimetric and fluorescence signal in CPE strains but not the Non CPE strains
2 | COc1cc(COc2ccc3nc4ccc(=O)cc-4oc3c2)ccc1OC/C=C/C1=C(C(=O)O)N2C(=O)[C@H]([C@@H](C)O)[C@H]2[C@H]1C [MCW-007, (4S,5R,6S)-6-((R)-1-hydroxyethyl)-3-((E)-3-(2-methoxy-4-(((3-oxo-3H-phenoxazin-7-yl)oxy)methyl)phenoxy)prop-1-en-1-yl)-4-methyl-7-oxo-1-azabicyclo[3.2.0]hept-2-ene-2-carboxylic acid] | 0.379 pM | ≤ 5 min | pronounced increase in the fluorescent signal | 116 ± 2.81 s⁻¹ | 1.33 ± 0.08 µM | 8.50 pM | slower compared to the reaction with NDM-1 and IMP-1 | 8.04 ± 1.96 s⁻¹ | 0.77 ± 0.06 µM | pronounced increase in the fluorescent signal | 0.439 pM | 95.1 ± 4.32 s⁻¹ | 1.56 ± 0.17 µM | ≤ 5 min | pronounced increase in the fluorescent signal | 367 pM | did not provide significant fluorescence response | 5.22 pM | slower compared to the reaction with NDM-1 and IMP-1 | 6.87 ± 0.11 s⁻¹ | Km (VIM-2): 0.92 ± 0.04 µM; fluorescence signal over time (VIM-2): pronounced increase in the fluorescent signal; fluorescence signal over time (AmpC): minimal changes in the fluorescent signal; fluorescence signal over time (TEM): minimal changes in the fluorescent signal; specificity among the tested beta-lactamases [1]: specific for some carbapenemases; signal with panel of clinical isolates ([2]; incubated for 15 min): observable colorimetric and fluorescence signal in some CPE strains but not the Non CPE strains; signal with panel of clinical isolates ([2]; incubated for 120 min): observable colorimetric and fluorescence signal in CPE strains but not the Non CPE strains
3 | O=C(Cc1cccs1)N[C@@H]1C(=O)N2C(C(=O)O)=C(/C=C/c3ccc([N+](=O)[O-])cc3[N+](=O)[O-])CS[C@H]12 [nitrocefin] | – | – | – | – | – | – | – | – | – | – | – | – | – | – | – | – | – | – | – | – | hydrolysis of nitrocefin ([3]; all of the tested beta-lactamases): can hydrolyze nitrocefin; time until hydrolysis reactions complete (absorption at 485 nm plateaued) ([3]; except NDM-1): ≤ 30 min
